ChEMBL document CHEMBL5053515, “Insights into Ergochromes of the Plant Pathogen Claviceps purpurea” (J Nat Prod, 2021)
pIC50: −log10 of the molar value. Calls of active or inactive are those of the source. No cut-off for these calls is given here.

Experiments:
[1] = target: T1, DNA topoisomerase 1 (Homo sapiens) (UniProt P11387); test: Inhibition of topoisomerase 1 (unknown origin) assessed as relaxation of supercoiled plasmid pUC18 measured after 30 mins by ethidium bromide staining based agarose gel electrophoresis
T1 sequence (whole entry): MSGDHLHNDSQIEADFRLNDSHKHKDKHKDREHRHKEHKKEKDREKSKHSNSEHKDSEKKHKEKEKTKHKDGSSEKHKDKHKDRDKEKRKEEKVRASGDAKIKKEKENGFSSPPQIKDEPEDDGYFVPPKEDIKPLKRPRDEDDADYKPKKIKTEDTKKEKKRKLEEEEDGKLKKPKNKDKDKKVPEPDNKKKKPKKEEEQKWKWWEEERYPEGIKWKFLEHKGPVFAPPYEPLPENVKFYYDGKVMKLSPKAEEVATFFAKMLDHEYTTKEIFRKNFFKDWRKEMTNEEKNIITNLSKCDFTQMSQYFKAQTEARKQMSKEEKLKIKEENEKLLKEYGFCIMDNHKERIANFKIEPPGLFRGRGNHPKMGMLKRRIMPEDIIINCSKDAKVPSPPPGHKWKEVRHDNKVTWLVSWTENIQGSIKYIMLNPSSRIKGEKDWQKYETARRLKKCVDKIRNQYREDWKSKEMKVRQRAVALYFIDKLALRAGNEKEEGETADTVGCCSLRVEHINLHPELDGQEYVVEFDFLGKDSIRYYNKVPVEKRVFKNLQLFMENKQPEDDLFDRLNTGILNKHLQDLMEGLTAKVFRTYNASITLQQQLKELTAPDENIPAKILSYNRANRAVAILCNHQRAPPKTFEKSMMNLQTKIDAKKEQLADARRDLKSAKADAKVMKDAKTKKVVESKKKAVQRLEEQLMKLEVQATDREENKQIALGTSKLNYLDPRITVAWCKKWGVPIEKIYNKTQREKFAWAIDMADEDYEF

CCF-STTG1 = test: Cytotoxicity against human CCF-STTG1 cells assessed as reduction in cell viability measured at 48 hrs by resazurin reagent based assay; assay type: functional; conditions: CCF-STTG1, 48 h
[2] = target: DNA topoisomerase 2-alpha (Homo sapiens) (UniProt P11388); test: Inhibition of human topoisomerase 2a assessed as reduction in decatenation of kinetoplast DNA at 25 uM using kinetoplast DNA as substrate incubated for 2 hrs by ethidium bromide staining based agarose gel electrophoresis method relative to control
Sequence of DNA topoisomerase 2-alpha (Homo sapiens) (P11388 whole entry): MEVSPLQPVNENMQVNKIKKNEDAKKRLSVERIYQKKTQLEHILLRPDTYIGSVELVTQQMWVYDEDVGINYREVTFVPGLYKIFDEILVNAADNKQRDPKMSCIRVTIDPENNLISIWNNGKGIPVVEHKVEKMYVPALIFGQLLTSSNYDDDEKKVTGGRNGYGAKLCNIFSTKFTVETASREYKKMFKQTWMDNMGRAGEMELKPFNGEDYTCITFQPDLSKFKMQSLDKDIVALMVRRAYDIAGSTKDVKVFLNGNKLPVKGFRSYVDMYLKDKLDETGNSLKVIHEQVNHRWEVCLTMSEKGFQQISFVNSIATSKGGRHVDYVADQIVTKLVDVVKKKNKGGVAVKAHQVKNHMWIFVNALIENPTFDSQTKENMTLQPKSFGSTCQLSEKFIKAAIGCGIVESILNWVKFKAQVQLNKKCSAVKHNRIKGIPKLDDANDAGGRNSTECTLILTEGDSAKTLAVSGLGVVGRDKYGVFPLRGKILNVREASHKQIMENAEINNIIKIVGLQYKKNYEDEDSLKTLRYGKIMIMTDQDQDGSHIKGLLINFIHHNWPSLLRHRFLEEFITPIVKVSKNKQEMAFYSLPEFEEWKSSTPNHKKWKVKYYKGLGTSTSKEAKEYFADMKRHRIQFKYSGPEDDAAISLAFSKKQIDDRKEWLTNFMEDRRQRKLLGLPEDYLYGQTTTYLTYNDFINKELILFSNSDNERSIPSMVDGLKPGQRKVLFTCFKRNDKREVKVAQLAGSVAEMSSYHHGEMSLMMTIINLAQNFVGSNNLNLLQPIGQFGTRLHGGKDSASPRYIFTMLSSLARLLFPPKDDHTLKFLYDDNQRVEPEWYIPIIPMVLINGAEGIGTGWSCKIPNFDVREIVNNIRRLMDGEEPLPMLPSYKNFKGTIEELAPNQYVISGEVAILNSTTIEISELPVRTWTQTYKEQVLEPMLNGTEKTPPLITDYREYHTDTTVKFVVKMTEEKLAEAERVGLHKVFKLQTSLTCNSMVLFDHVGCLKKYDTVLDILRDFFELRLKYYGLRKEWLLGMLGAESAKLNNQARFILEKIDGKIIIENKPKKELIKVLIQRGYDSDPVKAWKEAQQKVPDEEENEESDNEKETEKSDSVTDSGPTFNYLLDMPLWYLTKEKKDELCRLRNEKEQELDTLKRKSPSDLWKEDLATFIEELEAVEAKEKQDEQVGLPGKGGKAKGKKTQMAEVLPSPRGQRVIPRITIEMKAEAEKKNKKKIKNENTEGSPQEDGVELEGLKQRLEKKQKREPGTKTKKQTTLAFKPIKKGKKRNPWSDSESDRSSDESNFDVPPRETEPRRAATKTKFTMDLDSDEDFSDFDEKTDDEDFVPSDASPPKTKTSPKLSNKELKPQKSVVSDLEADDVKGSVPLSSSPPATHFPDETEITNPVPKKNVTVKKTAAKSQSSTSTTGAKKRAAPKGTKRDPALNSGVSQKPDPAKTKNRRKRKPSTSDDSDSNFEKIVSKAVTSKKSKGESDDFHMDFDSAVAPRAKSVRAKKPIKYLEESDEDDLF

HepG2 [3] = test: Cytotoxicity against human HepG2 cells assessed as reduction in cell viability at up to 100 uM measured at 48 hrs by resazurin reagent based assay; assay type: functional
[4] = target: T1, DNA topoisomerase 1 (Homo sapiens); test: Inhibition of topoisomerase 1 (unknown origin) assessed as relaxation of supercoiled plasmid pUC18 DNA at 100 uM measured after 30 mins by ethidium bromide staining based agarose gel electrophoresis relative to control
HepG2 [5] = test: Cytotoxicity against human HepG2 cells assessed as reduction in cell viability measured at 48 hrs by resazurin reagent based assay; assay type: functional; conditions: HepG2, 48 h
HepG2 [6] = test: Cytotoxicity against human HepG2 cells assessed as reduction in cell viability at 100 uM measured at 48 hrs by resazurin reagent based assay relative to control; assay type: functional

Row | SMILES | inhibition [1] | pIC50 (CCF-STTG1) | inhibition [2] | Activity (HepG2 [3]) | inhibition [4] [%] | pIC50 (HepG2 [5]) | Activity (HepG2 [6]) [%]
1 | COC(=O)[C@@]1(C(O)C(C)CC(=O)O)CC(=O)c2c(ccc(-c3ccc4c(c3O)C(=O)C3(O)C(O)C[C@@H](C)[C@H](O)[C@@]3(C(=O)O)O4)c2O)O1 (stereo partly specified) | inactive | 5.12 | inactive |  |  |  | 
2 | Cc1cc2c(c(O)c1C(=O)O)C(=O)c1c(O)cc(O)c(O)c1C2=O |  |  |  | inactive |  |  | 
3 | COC(=O)[C@]12Oc3ccc(-c4ccc5c(c4O)C(=O)C4=C(O)C[C@@H](C)[C@H](O)[C@@]4(C(=O)OC)O5)c(O)c3C(=O)C1=C(O)C[C@@H](C)[C@@H]2O [SECALONIC ACID A] | Dose-dependent effect | 6.00 | 100% |  | 100 | 6.05 | 
4 | Cc1cc2c(c(O)c1C(=O)O)C(=O)c1c(O)cc(O)cc1C2=O |  |  |  | inactive |  |  | 
5 | COC(=O)[C@]12Oc3ccc(-c4ccc5c(c4O)C(=O)C4(O)C(=O)C[C@@H](C)[C@H](O)[C@@]4(C(=O)OC)O5)c(O)c3C(=O)C1(O)C(=O)C[C@@H](C)[C@@H]2O (stereo partly specified) |  | 4.87 |  |  |  | 4.27 | 
6 | COC(=O)[C@]12Oc3ccc(-c4ccc(O)c5c4O[C@@]4(C(=O)OC)C(=C(O)C[C@@H](C)[C@@H]4O)C5=O)c(O)c3C(=O)C1=C(O)C[C@@H](C)[C@@H]2O |  | 6.00 |  |  |  | 6.05 | 
7 | COC(=O)[C@]12Oc3c(-c4ccc(O)c5c4O[C@@]4(C(=O)OC)C(=C(O)C[C@@H](C)[C@@H]4O)C5=O)ccc(O)c3C(=O)C1=C(O)C[C@@H](C)[C@@H]2O |  | 6.00 |  |  |  | 6.05 | 
8 | C[C@@H]1C[C@@]2(O)OC(=O)[C@@]3(Oc4ccc(-c5ccc6c(c5O)C(=O)C5(O)[C@@]7(O)C[C@@H](C)[C@H](O)[C@]5(O6)C(=O)O7)c(O)c4C(=O)C23O)[C@H]1O (stereo partly specified) | inactive | 5.64 | inactive |  |  | 4.22 | 3
